Assay results reported in EP1068184B1, “N-ARYLOXYETHYLAMINE DERIVATIVES FOR THE TREATMENT OF DEPRESSION” (Wyeth, priority 1998, dated 1999).

How the values were obtained:
[1] = target: T1, human 5-HT1A receptor subtype (Homo sapiens, UniProt P08908); assay: 5-HT1A receptor binding assay with [3H]8-OH-DPAT on membranes of 5-HT1A.CHO cells; settings: [3H]8-OH-DPAT 1.5 nM, CHO cell membranes
T1 construct: expressed in transfected cells
T1 sequence (P08908 1-422): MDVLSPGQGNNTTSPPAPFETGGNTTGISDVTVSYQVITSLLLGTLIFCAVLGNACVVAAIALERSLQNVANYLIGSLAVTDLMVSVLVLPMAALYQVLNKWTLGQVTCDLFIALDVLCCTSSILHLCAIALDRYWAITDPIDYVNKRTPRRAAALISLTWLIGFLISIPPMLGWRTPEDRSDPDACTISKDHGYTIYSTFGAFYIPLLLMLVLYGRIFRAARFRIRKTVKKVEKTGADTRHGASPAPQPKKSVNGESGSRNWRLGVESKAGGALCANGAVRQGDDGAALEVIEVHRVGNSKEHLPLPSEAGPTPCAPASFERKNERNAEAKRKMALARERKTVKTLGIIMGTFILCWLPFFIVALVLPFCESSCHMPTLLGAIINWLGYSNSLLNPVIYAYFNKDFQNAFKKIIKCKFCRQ
Method: (§1) The PCR cloning of the human 5-HT1A receptor subtype from a human genomic library has been described previously Chanda et al., Mol. Pharmacol., 43:516 (1993). A stable Chinese hamster ovary cell line expressing the human 5-HT1A receptor subtype (5-HT1A.CHO cells) was employed throughout this study. Cells were maintained in DMEM supplemented with 10% foetal calf serum, non-essential amino acids and penicillin/ streptomycin.
Cells were grown to 95-100% confluency as a monolayer before membranes were harvested for binding studies. Cells were gently scraped from the culture plates, transferred to centrifuge tubes, and washed twice by centrifugation (2000 rpm for 10 min., 4°C) in buffer (50 mM Tris; pH 7.5). The resulting pellets were aliquoted and placed at -80°C. On the day of assay, the cells were thawed on ice, and resuspended in buffer. Studies were conducted using [^3H]8-OH-DPAT as the radioligand. The binding assay was performed in 96 well microtiter plates in a final total volume of 250 µL of buffer. Competition experiments were performed by using 7 concentrations of unlabelled drug and a final ligand concentration of 1.5 nM . Non-specific binding was determined in the presence of 10 µM 5HT. Saturation analysis was conducted by using [^3H]8-OH-DPAT at concentrations ranging from 0.3-30 nM. Following a 30 minute incubation at room temperature, the reaction was terminated by the addition of ice cold buffer and rapid filtration using a M-96 Brandel Cell Harvester (Gaithersburg, MD) through a GF/B filter presoaked for 30 minutes in 0.5% polyethyleneimine.

[2] = target: T2, serotonin transporter (Rattus norvegicus, UniProt P31652); assay: serotonin transporter affinity, 3H-paroxetine binding to frontal cortical membranes; set-up: species or system male Sprague-Dawley rats; settings: 3H-paroxetine 0.1 nM, rat frontal cortical membranes; read-out: ST (Ki)
T2 construct: frontal cortical membranes prepared from male Sprague-Dawley rats; from tissue; host or cells: rat frontal cortex membranes
Method: Briefly, frontal cortical membranes prepared from male Sprague-Dawley rats were incubated with ^3H-paroxetine (0.1 nM) for 60 min at 25°C. All tubes also contained either vehicle, test compound (one to eight concentrations), or a saturating concentration of fluoxetine (10 µM) to define specific binding. All reactions are terminated by the addition of ice cold Tris buffer followed by rapid filtration using a Tom Tech filtration device to separate bound from free ^3H-paroxetine.

[3] = target: T3, 5-HT1A cloned receptor (Homo sapiens, UniProt P08908); assay: [35S]-GTPγS binding assay on 5-HT1A cloned receptor membrane fragments; assay type: biochemical; settings: maximum agonist response defined by excess 8-OH-DPAT
T3 construct: expressed in transfected cells
T3 sequence (P08908 1-422): T1 sequence (P08908 1-422)
Method: The [^35S]-GTPγS binding assay was similar to that used by Lazareno and Birdsall, Br. J. Pharmacol. 109:1120 (1993). Briefly, 5-HT1A cloned receptor membrane fragments (as used for 5-HT1A receptor binding assays) were stored at -70 °C until needed. When needed, membranes were rapidly thawed, centrifuged at 40,000 x g for 10 minutes and resuspended at 4 °C for 10 minutes in assay buffer (25 mM HEPES, 3 mM MgCl2, 100 mM NaCI, 1 mM EDTA, 10 uM GDP, […] DTT, pH 8.0). These membranes were then incubated for 30 min at 30 °C with [^35S]GTPgS (1 nM) in the presence of vehicle, test compound (one to eight concentrations), or excess 8-OH-DPAT to define maximum agonist response. All reactions are terminated by the addition of ice cold Tris buffer followed by rapid filtration using a Tom Tech® filtration device to separate bound from free [^35S]GTPgS. Agonists produce an increase in the amount of [^35S]GTPgS bound whereas antagonists produce no increase in binding. Bound radioactivity was counted and analyzed as above.

[4] = target: T1, human 5-HT1A receptor subtype; assay: cAMP formation in forskolin-treated cells (cAMP SPA assay); assay type: cell-based; settings: forskolin 1 uM, 10 min at 37°C
Method: as §1
The following assays were performed by incubating the cells with DMEM containing 25 mM HEPES, 5 mM theophylline and 10 µM pargyline for a period of 20 minutes at 37°C. Functional activity was assessed by treating the cells with forskolin (1 uM final concentration) followed immediately by test compound (6 concentrations) for an additional 10 min at 37°C. In separate experiments, 6 concentrations of antagonist were preincubated for 20 min prior to the addition of 10 nM 8-OH-DPAT and forskolin. The reaction was terminated by removal of the media and addition of 0.5 ml ice cold assay buffer. Plates were stored at -20°C prior to assessment of cAMP formation by a cAMP SPA assay (Amersham).

T2 sequence (P31652 whole entry): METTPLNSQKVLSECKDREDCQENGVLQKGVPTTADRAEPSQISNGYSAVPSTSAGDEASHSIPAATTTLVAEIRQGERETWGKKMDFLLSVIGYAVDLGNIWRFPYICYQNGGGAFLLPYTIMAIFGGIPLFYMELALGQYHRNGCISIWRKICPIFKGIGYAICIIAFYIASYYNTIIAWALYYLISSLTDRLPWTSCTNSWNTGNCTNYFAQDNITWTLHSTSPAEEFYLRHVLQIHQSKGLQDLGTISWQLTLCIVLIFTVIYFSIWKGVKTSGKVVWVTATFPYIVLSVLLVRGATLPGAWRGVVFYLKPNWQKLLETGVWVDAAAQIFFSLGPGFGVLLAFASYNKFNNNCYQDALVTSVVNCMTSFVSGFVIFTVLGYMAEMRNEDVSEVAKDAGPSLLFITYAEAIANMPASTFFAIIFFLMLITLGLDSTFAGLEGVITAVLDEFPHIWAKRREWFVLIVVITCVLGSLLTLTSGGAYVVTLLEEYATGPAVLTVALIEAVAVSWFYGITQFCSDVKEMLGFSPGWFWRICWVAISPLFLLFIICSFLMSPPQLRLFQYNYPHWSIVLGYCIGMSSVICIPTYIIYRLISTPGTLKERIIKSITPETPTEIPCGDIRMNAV

Compound | Ki [1] [nM] | Ki [2] [nM] | Emax [3] [%] | Emax [4] [%]
N#Cc1ccc2[nH]cc([C@H]3CC[C@H](NCCOc4cc(F)cc5c4OCCC5)CC3)c2c1 [Example 5f, 3-{(1,4-trans)-4-[2-(6-Fluoro-chroman-8-yloxy)-ethylamino]-cyclohexyl}-1H-indole-5-carbonitrile] | 10.1 | 2.6 | 30 | 0
Fc1cc2c(c(OCCN[C@H]3CC[C@H](c4c[nH]c5ccc(F)cc54)CC3)c1)OCCC2 [Example 5b, [2-(6-Fluoro-chroman-8-yloxy)-ethyl]-[(1,4-trans)-4-(5-fluoro-1H -indol-3-yl)-cyclohexyl]-amine] | 19.4 | 1.52 | 22 | 0
Fc1ccc2[nH]cc([C@H]3CC[C@H](NCCOc4cccc5[nH]ccc45)CC3)c2c1 [Example 3b] | 1.08 | 2.5 | 62 | 90
Fc1ccc2[nH]cc([C@H]3CC[C@H](NCCOc4cccc5c4OCCO5)CC3)c2c1 [Example 4b] | 18.9 | 1.12 | – | 61
COc1ccc(F)cc1OCCN[C@H]1CC[C@H](c2c[nH]c3cc(F)ccc32)CC1 [Example 2b, [(1,4-trans)-4-(6-Fluoro-1H-indol-3-yl)-cyclohexyl]-[2-(5-fluoro-2-methoxy-phenoxy)-ethyl]-amine] | 47.8 | 0.42 | 0 | 0
